One block for each compound: values may come before it.
What was measured:
[1] = molecular target: Vascular endothelial growth factor receptor 2 (Homo sapiens, UniProt P35968); format: functional
[2] = molecular target: Gamma-aminobutyric acid receptor subunit alpha-1/alpha-2/beta-2/gamma-2 (Homo sapiens, UniProt P14867+P18507+P47869+P47870); format: protein-complex assay
Adenosine receptor A1 = molecular target: T1, Adenosine receptor A1 (Homo sapiens, UniProt P30542)
T1 sequence (P30542 whole entry): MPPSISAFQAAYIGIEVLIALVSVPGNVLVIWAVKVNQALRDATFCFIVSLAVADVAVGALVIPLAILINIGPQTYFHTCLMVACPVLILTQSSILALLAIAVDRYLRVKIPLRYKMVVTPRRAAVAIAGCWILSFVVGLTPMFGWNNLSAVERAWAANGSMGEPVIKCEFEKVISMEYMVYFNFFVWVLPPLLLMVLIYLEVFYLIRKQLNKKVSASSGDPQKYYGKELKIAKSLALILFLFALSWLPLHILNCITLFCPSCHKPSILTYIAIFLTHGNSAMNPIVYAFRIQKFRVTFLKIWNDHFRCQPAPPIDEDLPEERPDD

[3] = molecular target: Glutamate receptor ionotropic, NMDA 1 (Rattus norvegicus, UniProt P35439)
[4] = molecular target: T2, Amine oxidase [flavin-containing] A (Homo sapiens, UniProt P21397); format: functional
T2 sequence (P21397 whole entry): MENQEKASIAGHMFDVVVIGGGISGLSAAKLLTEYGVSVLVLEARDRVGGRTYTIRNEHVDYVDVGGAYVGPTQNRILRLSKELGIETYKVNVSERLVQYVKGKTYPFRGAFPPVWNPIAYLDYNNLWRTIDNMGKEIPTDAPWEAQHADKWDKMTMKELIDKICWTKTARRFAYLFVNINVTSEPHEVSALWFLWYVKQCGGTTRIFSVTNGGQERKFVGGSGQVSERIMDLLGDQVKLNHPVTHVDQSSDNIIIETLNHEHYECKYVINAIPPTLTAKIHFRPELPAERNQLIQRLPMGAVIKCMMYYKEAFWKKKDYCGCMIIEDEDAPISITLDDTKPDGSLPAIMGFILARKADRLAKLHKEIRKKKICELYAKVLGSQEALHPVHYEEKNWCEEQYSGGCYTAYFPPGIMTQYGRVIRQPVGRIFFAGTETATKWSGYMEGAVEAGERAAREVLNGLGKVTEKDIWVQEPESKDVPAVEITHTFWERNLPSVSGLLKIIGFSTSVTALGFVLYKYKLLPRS

[5] = molecular target: Sodium-dependent noradrenaline transporter (Homo sapiens, UniProt P23975)
B2 bradykinin receptor = molecular target: T3, B2 bradykinin receptor (Homo sapiens, UniProt P30411)
T3 sequence (P30411 whole entry): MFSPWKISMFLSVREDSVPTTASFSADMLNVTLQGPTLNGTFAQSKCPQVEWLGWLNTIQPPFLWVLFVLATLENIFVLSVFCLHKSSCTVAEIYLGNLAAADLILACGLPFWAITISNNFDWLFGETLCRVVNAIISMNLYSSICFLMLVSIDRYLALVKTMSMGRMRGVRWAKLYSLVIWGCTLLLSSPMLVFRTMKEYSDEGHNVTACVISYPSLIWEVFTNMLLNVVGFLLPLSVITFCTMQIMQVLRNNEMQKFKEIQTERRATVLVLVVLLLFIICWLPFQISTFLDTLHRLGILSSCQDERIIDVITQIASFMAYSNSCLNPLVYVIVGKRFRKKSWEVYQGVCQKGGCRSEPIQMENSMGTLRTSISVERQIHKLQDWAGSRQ

Adenosine receptor A2a = Adenosine receptor A2a (Homo sapiens, UniProt P29274)
Chain of Adenosine receptor A2a (P29274 whole entry): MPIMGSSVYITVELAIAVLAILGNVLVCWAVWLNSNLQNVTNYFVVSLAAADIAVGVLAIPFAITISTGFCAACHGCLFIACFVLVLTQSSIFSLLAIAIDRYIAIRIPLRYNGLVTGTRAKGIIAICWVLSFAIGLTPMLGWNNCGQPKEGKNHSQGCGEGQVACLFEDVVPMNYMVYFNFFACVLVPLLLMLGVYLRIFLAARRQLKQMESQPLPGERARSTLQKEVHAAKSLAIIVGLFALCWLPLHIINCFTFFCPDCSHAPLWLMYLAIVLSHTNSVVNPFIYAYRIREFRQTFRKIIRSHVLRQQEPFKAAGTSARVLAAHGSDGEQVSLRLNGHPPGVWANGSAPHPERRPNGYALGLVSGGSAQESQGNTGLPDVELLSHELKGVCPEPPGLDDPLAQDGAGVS

[6] = molecular target: T4, Alpha-2C adrenergic receptor (Homo sapiens, UniProt P18825); format: functional
T4 sequence (P18825 whole entry): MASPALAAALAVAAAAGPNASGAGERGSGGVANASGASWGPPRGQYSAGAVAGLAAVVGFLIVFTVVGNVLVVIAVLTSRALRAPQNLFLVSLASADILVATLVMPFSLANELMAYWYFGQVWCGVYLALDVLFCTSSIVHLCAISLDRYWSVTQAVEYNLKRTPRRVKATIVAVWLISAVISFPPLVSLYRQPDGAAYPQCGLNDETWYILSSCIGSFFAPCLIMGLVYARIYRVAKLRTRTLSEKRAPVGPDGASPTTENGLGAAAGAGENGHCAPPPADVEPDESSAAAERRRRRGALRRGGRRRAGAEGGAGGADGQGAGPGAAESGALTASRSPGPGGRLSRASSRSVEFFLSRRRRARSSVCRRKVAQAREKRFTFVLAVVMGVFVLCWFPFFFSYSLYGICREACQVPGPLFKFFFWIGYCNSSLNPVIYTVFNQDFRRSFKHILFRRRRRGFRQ

Vasopressin V1a receptor = Vasopressin V1a receptor (Homo sapiens, UniProt P37288)
Chain of Vasopressin V1a receptor (P37288 whole entry): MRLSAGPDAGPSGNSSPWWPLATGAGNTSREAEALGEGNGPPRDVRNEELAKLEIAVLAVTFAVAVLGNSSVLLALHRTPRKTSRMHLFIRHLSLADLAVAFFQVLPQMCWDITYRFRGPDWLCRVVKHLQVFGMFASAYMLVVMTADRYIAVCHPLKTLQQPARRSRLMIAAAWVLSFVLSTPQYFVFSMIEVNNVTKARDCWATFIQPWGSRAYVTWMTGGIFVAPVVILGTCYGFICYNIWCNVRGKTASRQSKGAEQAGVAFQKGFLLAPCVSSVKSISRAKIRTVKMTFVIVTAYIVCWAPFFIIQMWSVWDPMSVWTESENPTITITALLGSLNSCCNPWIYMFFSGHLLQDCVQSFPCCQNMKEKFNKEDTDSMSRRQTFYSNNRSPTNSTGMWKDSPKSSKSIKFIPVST

[7] = molecular target: T5, Alpha-2A adrenergic receptor (Homo sapiens, UniProt P08913); format: functional, cell-based
T5 sequence (P08913 whole entry): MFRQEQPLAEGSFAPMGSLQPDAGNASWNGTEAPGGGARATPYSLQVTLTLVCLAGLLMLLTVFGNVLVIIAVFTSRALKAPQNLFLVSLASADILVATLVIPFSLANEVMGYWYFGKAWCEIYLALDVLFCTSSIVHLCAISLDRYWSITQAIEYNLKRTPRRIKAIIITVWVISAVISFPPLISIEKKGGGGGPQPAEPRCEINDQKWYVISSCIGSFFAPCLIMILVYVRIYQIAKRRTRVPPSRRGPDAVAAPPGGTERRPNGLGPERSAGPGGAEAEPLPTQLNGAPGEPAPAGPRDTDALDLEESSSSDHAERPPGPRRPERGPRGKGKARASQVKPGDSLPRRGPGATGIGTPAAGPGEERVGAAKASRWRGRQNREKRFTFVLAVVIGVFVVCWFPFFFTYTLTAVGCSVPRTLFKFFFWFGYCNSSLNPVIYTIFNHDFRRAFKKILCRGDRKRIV

[8] = molecular target: Gamma-aminobutyric acid receptor subunit alpha-1 (Rattus norvegicus, UniProt P62813); format: functional
Chain of Gamma-aminobutyric acid receptor subunit alpha-1 (P62813 whole entry): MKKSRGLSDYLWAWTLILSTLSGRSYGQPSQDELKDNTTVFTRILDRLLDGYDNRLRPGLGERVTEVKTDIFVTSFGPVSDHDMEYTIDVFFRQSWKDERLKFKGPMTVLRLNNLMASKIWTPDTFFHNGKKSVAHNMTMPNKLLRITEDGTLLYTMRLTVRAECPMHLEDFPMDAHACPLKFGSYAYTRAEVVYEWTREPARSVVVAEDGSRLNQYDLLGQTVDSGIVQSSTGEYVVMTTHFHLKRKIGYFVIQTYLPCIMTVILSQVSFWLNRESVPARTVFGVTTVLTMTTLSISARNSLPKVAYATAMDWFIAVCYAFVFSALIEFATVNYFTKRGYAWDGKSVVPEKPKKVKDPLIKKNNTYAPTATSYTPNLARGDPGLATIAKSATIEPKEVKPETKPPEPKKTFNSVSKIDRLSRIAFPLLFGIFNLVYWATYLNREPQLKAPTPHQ
Further: assay procedure not described here.

Chain of Vascular endothelial growth factor receptor 2 (P35968 whole entry): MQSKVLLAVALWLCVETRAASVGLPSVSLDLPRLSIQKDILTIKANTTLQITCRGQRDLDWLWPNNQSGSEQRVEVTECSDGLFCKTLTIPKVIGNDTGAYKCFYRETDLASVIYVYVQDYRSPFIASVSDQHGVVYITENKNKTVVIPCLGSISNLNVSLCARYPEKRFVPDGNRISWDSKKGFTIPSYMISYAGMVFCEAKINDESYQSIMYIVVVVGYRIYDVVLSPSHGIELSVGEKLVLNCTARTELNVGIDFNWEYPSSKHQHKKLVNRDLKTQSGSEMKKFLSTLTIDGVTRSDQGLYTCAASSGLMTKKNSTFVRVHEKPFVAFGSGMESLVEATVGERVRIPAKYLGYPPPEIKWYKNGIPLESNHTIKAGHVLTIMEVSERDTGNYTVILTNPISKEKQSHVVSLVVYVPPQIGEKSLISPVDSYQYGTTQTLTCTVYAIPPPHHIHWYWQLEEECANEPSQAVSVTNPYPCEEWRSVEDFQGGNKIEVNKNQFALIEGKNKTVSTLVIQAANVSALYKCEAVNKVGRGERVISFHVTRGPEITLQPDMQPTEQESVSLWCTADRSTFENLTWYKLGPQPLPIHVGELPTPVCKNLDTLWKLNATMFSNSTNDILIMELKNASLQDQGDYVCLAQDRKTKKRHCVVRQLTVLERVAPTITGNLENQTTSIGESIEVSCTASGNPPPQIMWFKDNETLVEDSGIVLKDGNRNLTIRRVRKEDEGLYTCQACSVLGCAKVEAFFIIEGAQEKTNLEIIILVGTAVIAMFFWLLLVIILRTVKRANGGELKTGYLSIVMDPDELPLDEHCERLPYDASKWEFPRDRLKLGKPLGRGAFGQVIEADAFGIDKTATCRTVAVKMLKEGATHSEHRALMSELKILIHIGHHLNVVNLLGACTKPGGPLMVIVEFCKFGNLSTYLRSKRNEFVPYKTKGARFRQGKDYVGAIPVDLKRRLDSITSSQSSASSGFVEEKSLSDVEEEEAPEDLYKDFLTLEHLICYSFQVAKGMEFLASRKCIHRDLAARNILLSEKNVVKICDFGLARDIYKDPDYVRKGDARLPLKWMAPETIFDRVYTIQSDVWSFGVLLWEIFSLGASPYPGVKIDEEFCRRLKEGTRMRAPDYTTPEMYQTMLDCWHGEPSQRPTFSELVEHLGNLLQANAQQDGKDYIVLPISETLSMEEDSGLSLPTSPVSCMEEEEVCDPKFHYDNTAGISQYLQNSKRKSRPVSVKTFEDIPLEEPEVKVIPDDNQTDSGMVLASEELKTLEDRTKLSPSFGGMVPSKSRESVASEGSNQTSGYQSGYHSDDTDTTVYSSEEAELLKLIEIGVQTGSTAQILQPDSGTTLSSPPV
Chain of Gamma-aminobutyric acid receptor subunit alpha-1/alpha-2/beta-2/gamma-2 (P14867 whole entry): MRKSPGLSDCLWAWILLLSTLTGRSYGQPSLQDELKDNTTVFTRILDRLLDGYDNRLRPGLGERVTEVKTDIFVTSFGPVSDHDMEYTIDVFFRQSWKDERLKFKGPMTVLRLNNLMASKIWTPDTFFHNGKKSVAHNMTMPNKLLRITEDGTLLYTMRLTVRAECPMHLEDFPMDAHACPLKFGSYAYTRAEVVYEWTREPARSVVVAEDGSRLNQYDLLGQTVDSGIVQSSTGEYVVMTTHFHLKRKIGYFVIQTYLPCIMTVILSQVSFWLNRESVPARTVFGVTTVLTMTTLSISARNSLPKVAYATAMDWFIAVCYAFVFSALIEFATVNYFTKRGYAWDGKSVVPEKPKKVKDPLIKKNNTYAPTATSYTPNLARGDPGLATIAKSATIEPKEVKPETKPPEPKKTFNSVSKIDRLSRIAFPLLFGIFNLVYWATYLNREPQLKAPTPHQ
Chain of Gamma-aminobutyric acid receptor subunit alpha-1/alpha-2/beta-2/gamma-2 (P47870 whole entry): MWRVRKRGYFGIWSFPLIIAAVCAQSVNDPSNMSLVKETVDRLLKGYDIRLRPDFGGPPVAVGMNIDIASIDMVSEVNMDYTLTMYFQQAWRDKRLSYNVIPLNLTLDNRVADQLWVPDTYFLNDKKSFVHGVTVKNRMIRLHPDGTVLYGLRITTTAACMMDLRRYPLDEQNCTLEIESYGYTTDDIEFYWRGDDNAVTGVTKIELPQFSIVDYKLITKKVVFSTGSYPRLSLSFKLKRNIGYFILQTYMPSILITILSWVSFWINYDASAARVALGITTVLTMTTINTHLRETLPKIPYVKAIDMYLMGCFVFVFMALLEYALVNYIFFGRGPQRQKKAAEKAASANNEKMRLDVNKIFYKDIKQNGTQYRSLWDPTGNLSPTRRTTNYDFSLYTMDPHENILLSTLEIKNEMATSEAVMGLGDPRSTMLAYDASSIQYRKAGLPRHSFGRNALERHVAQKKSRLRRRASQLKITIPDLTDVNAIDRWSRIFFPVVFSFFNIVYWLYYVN
Chain of Gamma-aminobutyric acid receptor subunit alpha-1/alpha-2/beta-2/gamma-2 (P18507 whole entry): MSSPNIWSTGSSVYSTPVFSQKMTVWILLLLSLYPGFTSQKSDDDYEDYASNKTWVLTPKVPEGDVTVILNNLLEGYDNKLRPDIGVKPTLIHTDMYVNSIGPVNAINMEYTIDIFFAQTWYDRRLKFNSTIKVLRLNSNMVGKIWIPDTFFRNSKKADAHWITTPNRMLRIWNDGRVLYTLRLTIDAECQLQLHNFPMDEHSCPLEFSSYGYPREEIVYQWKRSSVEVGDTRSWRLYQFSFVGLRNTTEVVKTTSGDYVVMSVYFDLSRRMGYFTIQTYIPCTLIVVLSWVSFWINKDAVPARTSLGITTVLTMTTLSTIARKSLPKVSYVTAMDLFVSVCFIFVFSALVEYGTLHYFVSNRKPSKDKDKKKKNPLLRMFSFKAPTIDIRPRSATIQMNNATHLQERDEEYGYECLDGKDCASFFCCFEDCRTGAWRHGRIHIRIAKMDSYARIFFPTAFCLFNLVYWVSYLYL
Chain of Gamma-aminobutyric acid receptor subunit alpha-1/alpha-2/beta-2/gamma-2 (P47869 whole entry): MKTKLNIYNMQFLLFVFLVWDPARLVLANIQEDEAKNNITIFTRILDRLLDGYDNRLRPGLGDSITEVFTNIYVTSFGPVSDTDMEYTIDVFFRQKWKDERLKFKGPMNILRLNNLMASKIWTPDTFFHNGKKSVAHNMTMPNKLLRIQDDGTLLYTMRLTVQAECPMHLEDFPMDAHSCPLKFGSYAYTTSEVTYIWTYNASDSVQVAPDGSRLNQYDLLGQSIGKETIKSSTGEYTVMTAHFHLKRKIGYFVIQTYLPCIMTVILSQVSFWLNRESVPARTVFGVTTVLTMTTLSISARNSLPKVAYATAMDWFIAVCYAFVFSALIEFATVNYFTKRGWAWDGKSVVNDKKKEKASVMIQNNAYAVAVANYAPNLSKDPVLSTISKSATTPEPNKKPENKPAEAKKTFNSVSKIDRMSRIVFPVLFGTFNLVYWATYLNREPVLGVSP

Compound: CN(C)c1ccc(C(=C2C=CC(=[N+](C)C)C=C2)c2ccc(N(C)C)cc2)cc1 [GENTIAN VIOLET]
- AC50 [1]: 2.97 µM
- AC50 [2]: > 3 µM

Compound: Nc1ccc(S(N)(=O)=O)cc1 [SULFANILAMIDE]
- AC50 (Adenosine receptor A1): > 30 µM

- AC50 [3]: > 30 µM
- AC50 [4]: > 30 µM
- AC50 [5]: > 30 µM
- AC50 (B2 bradykinin receptor): > 30 µM
- AC50 (Adenosine receptor A2a): > 30 µM
- AC50 [6]: 20 µM
- AC50 (Vasopressin V1a receptor): > 30 µM
- AC50 [7]: > 30 µM
- AC50 [8]: > 30 µM
Compound: HYDROXOCOBALAMIN
